Where a SMILES comes first, the peptide text is derived from it. [ ]: non-standard residue; d: D form. pY = N[C@@H](Cc1ccc(OP(=O)(O)O)cc1)C(=O)O; pS = N[C@@H](COP(=O)(O)O)C(=O)O

The target of one assay is T1, KPNA4 ARM (Homo sapiens, UniProt O00629).
T1 construct: O00629; KPNA4; Arm; 68; 487; pETM33/pETM41; Genescript; made in house; host or cells: bacteria (E. coli BL21(DE3) gold is named only for the phage-selection preparations)
The assay can be described thus: FP competition, KPNA4 ARM minor pocket (FITC-NCOR2 probe). The note with it: for effect of phosphorylation on the affinity for KPNA4, in words: FP competition with FITC-NCOR2 probe, phosphorylated versus unphosphorylated NCOR1 peptide. Format: binding. From the text: Like other importins, KPNA4 has two distinct NLS‐binding pockets on the surface of an armadillo (ARM) repeat fold (major pocket, ARM 2–4; minor pocket, ARM 6–8; Fig 5B) (Smith et al, [2018]). Bipartite NLSs are usually 17–19 amino acids long and engage both pockets. Monopartite NLSs are short basic stretches, divided into five classes (Kosugi et al, [2009]): class I KR[KR]R or K[KR]RK, class II [PR]xxKR[^DE][KR] (where ^ indicates “not”), class III KRx[WFY]xxAF, class IV [RP]xxKR[KR][^DE], and class V LGKR[KR][WFY]. The class I and class II motifs preferentially interact with the major pocket (Kosugi et al, [2009]). In contrast, class III and class IV NLSs preferentially bind to the minor pocket. Using KPNA4 as a bait against the HD2 P8 library we identified 33 peptides found in 32 proteins. Of the 26 proteins for which information was available, 22 proteins were annotated as having nuclear or nucleolar localization in the UniProt database. To gain additional information we combined the data generated for KPNA4 by screening against the complete P8 HD2 library, with the results generated using two relevant sublibraries (the cytoplasmic and nuclear, and nuclear sublibraries) resulting in a set of 92 peptides containing NLS‐like sequences found in 76 proteins. Using these peptides we could generate consensus motifs that matched four of the previously reported NLS classes (Fig 5A; class I‐IV). […] Three peptides bound only to the major pocket. Eight peptides with class III motif and one KRxH‐containing peptide only bound to the minor pocket. Five peptides outcompeted both probe peptides, which may be explained by the amino acid sequence matching both class II and class III motifs (e.g., 1135‐ PSPKRKL ‐1139 in ZNF532; Fig 5), and possibly by cross specificity of the two binding pockets.

Assay [1] relates to immobilized GST-tagged bait protein domains. Put plainly: ProP-PD phage selections (HD2 P8, sublibraries, HD2 P3, HD1 P8) with NGS and confidence level. As to conditions: for HD2_endomembrane confidence: HD2 P8 endomembrane sublibrary. In kind it is binding, human.
[2] abbreviates: bait CRK_SH3_1_P46108_124_198, library HD2, benchmarking set of validated motif instances, TRUE = motif instance recovered in the ProP-PD selection.
[3] abbreviates: bait MAP1LC3A_ATG8__Q9H492_2_121, confidence level (4 = High, 2-3 = Medium, 1 = Low).
The mark [4] stands for this setting: bait MAP1LC3A_ATG8 (Q9H492 2-121), HD2 library, benchmark motif instance recovered in the ProP-PD selection (TRUE/FALSE).
[5] abbreviates: bait MAP1LC3A_ATG8 (Q9H492 2-121), HD2 library, confidence level (1-4) of best matching peptide.
Where [6] appears, read: bait MAP1LC3A_ATG8 (Q9H492 2-121), HD2 library, specificity score of best matching peptide.

T1 sequence (O00629 68-487): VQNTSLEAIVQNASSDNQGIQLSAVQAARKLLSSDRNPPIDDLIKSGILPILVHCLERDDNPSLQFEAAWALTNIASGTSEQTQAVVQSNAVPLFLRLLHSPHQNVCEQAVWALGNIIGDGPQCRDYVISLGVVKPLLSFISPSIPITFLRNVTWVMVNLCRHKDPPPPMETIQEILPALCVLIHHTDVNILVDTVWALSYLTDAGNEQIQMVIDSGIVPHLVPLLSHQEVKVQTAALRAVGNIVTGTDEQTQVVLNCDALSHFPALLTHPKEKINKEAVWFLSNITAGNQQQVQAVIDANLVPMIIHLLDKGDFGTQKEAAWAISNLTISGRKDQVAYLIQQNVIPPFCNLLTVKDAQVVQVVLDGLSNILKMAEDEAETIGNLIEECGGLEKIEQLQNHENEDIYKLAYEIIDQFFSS

Broadly, the IC50 is the concentration that gives 50% inhibition. The low end stands for greater potency in that assay, the high end for weaker potency in that assay. Take `CC[C@H](C)[C@H](NC(=O)[C@H](CC(N)=O)NC(=O)CNC(=O)[C@H](CCC(=O)O)NC(=O)[C@@H](NC(=O)[C@H](CO)NC(=O)[C@H](CCC(=O)O)NC(=O)[C@H](Cc1ccc(O)cc1)NC(=O)[C@H](CO)NC(=O)[C@H](CCCNC(=N)N)NC(=O)[C@H](CCCCN)NC(=O)[C@H](CC(C)C)NC(=O)[C@H](COP(=O)(O)O)NC(=O)[C@@H](NC(=O)[C@H](CCC(=O)O)NC(C)=O)[C@@H](C)CC)C(C)C)C(=O)N[C@@H](CCCCN)C(N)=O` [NCOR1 pS1242] (Ac-EI[pS]LKRSYESVEGNIK-NH2): on KPNA4 ARM, the IC50 is 31 µM and the “effect of phosphorylation on the affinity for KPNA4, in words” value (from here on “effect of phosphorylation”) is “minor effects”.

Turning to `CC[C@H](C)[C@H](NC(=O)[C@H](CC(N)=O)NC(=O)CNC(=O)[C@H](CCC(=O)O)NC(=O)[C@@H](NC(=O)[C@H](CO)NC(=O)[C@H](CCC(=O)O)NC(=O)[C@H](Cc1ccc(O)cc1)NC(=O)[C@H](COP(=O)(O)O)NC(=O)[C@H](CCCNC(=N)N)NC(=O)[C@H](CCCCN)NC(=O)[C@H](CC(C)C)NC(=O)[C@H](CO)NC(=O)[C@@H](NC(=O)[C@H](CCC(=O)O)NC(C)=O)[C@@H](C)CC)C(C)C)C(=O)N[C@@H](CCCCN)C(N)=O` [NCOR1 pS1246] (Ac-EISLKR[pS]YESVEGNIK-NH2), on KPNA4 ARM, the IC50 turned out to be 240 µM and the “effect of phosphorylation” value was “marked loss of affinity”.

Turning to `CC[C@H](C)[C@H](NC(=O)[C@H](CC(N)=O)NC(=O)CNC(=O)[C@H](CCC(=O)O)NC(=O)[C@@H](NC(=O)[C@H](CO)NC(=O)[C@H](CCC(=O)O)NC(=O)[C@H](Cc1ccc(OP(=O)(O)O)cc1)NC(=O)[C@H](CO)NC(=O)[C@H](CCCNC(=N)N)NC(=O)[C@H](CCCCN)NC(=O)[C@H](CC(C)C)NC(=O)[C@H](CO)NC(=O)[C@@H](NC(=O)[C@H](CCC(=O)O)NC(C)=O)[C@@H](C)CC)C(C)C)C(=O)N[C@@H](CCCCN)C(N)=O` [NCOR1 pY1247] (Ac-EISLKRS[pY]ESVEGNIK-NH2), at KPNA4 ARM, the 50% inhibitory concentration (IC50) amounted to 21 µM and the “effect of phosphorylation” value is recorded as “minor effects”.

On to VPTLPPKQQFLPSSPG, for which the HD2_nc confidence in assay [1] (bait CRK_SH3_1_P46108_124_198, HD2 P8 nucleocytoplasmic sublibrary, confidence level (4 = High, 2-3 = Medium, 1 = Low)) amounted to 4. This compound also gave an HD2_nc mean counts in assay [1] (bait CRK_SH3_1_P46108_124_198, HD2 P8 nucleocytoplasmic sublibrary, mean NGS counts over replicate selections) of 1917.0. In assay [1] (bait CRK_SH3_1_P46108_124_198, HD2 P8 nucleocytoplasmic sublibrary, mean proportion of NGS counts), this compound returned an HD2_nc count proportions of 0.01185.

As to VQPKQDAFANFANFSK, the HD confidence in assay [1] (bait AP2B1_adaptin__P63010_700_937, library HD) amounted to 2. This compound came in with an HD count proportions in assay [1] (bait AP2B1_adaptin__P63010_700_937, library HD, mean normalised NGS counts) of 0.0004926. In assay [1] (bait AP2B1_adaptin__P63010_700_937, library HD, mean raw NGS counts, all selections), this compound came in with an HD mean counts of 1.25.

As to VSGSHCTPPPPYHADP, the best_confidence in assay [1] (library HD2, bait YAP1_WW_1_P46937_169_207, confidence level of best matching selected peptide (4 High, 2-3 Medium, 1 Low)) worked out at 4. Besides, in assay [1] (library HD2, bait YAP1_WW_1_P46937_169_207, specificity score of best matching selected peptide), the best_specificity is listed as 0.99. In addition, the motif_found result in assay [1] (library HD2, bait YAP1_WW_1_P46937_169_207, validated benchmark motif instance, in_library_check TRUE, TRUE/FALSE = instance recovered in ProP-PD selection) was “TRUE”.

Consider VSPSTSY, for which the motif_found entry in assay [1] (library HD2, bait USP7_MATH-TRAF__Q93009_53_206, validated benchmark motif instance, in_library_check TRUE, TRUE/FALSE = instance recovered in ProP-PD selection) is reported as “FALSE”.

As to VSSAAPSPRGCADGRDADPTEE, in assay [1] (HD2 library, bait TNKS_TANK-peptide-bind__O95271_174_649, known motif instance of the benchmarking set found (TRUE) or not found (FALSE) among selected peptides), the motif_found entry was “FALSE”.

On to VSVDSIPLEWDHTGDVGGSSSHE, for which the motif_found entry in assay [1] (library HD2, bait KLC1_TPR__Q07866_203_497, whether the validated benchmark motif instance was recovered in the ProP-PD selection (TRUE/FALSE)) is reported as “FALSE”.

Consider VVDNSPPPALPPKKRQSAPS [RAPGEF1], for which, in assay [1] (setting [2]), the motif_found entry is “FALSE”.

Consider VVHSAGRRFIVSPVPESRL, for which, in assay [1] (bait OXSR1___O95747_434_527, HD2 library, whether the validated benchmark motif instance was recovered in the ProP-PD selection (TRUE/FALSE)), the motif_found entry is listed as “FALSE”.

In turn, WADFSSTWPTSTNEKP gave an HD2_endomembrane confidence in assay [1] (bait AP2B1_adaptin__P63010_700_937, confidence level (4 = High, 2-3 = Medium, 1 = Low)) of 4.

WAKFSNDNIKHSQNMR displayed an HD confidence in assay [1] (bait AP2B1_adaptin__P63010_700_937, HD1 P8 library, confidence level (4 = High, 2-3 = Medium, 1 = Low)) of 4. In addition, in assay [1] (bait AP2B1_adaptin__P63010_700_937, HD1 P8 library, mean NGS counts over replicate selections), the HD mean counts turned out to be 1.5. Also, the HD count proportions in assay [1] (bait AP2B1_adaptin__P63010_700_937, HD1 P8 library, mean proportion of NGS counts) amounted to 0.0005262.

Regarding WEALNDSVKTSMHWVV, the HD2-1mM_CaCl confidence in assay [1] (bait CALM1 EF-hand (P0DP23, 2-149), HD2 library selection with 1mM_CaCl, confidence level (4 = High, 2 or 3 = Medium, 1 = Low)) is given as 2. This compound also had an HD2 confidence in assay [1] (bait CALM1 EF-hand (P0DP23, 2-149), HD2 library selection, confidence level (4 = High, 2 or 3 = Medium, 1 = Low)) of 3.

For the compound WEMVPRHSSWGDVGVG, in assay [1] (setting [3]), the HD2_endomembrane confidence was 4.

In the case of WNERQPAPALPPKPPKPTTV [PIK3R1], in assay [1] (setting [2]), the motif_found result is “TRUE”.

In assay [1] (bait AP2B1_adaptin__P63010_700_937, HD2 P8 selection, non primary paralogue peptide match, confidence level -4 to 4: 4 = High, 3 or 2 = Medium, 1 = Low, 0 = Filtered/Noise), WQPFPDDHSACLRPGS returned an HD2 confidence of 3.

The compound WRVLGLCLLSVGVWGQ returned an HD2_cytoplasm confidence in assay [1] (bait CALM1_EF-hand__P0DP23_2_149, HD2 P8 cytoplasm sublibrary, confidence level (4 = High, 2-3 = Medium, 1 = Low)) of 3.

With WTHLSSKEVDPSTGEL, the motif_found entry was “TRUE” in assay [1] (setting [4]) and “TRUE” in assay [1] (bait MAP1LC3B_ATG8 (Q9GZQ8 2-119), HD2 library, benchmark motif instance recovered in the ProP-PD selection (TRUE/FALSE)). For the same compound, the best_confidence in assay [1] (setting [5]) came out at 4; in assay [1] (bait MAP1LC3B_ATG8 (Q9GZQ8 2-119), HD2 library, confidence level (1-4) of best matching peptide) it was 3. The best_specificity in assay [1] (setting [6]) amounted to 1; in assay [1] (bait MAP1LC3B_ATG8 (Q9GZQ8 2-119), HD2 library, specificity score of best matching peptide), 1.

Turning to WTMVDENFSTLSLTQS, in assay [1] (setting [3]), the HD2_endomembrane confidence was 4.

For WVELPMNSSNGNDNGN, in assay [1] (setting [4]), the motif_found result is on record as “TRUE”. For the same compound, the best_confidence in assay [1] (setting [5]) is 2. Further, the best_specificity in assay [1] (setting [6]) is 1.

For the compound YAKKVGYTPDWIFLLRNVMRI [CLTC 511-517], the motif_found entry was “FALSE” in assay [1] (HD2 library, bait MAP1LC3A_ATG8__Q9H492_2_121, benchmark motif instance, in_library_check FALSE, in_library_coverage 0) and “FALSE” in assay [1] (HD2 library, bait MAP1LC3B_ATG8__Q9GZQ8_2_119, benchmark motif instance, in_library_check FALSE, in_library_coverage 0).

Take YDREFLLDFQFMPACI: the best_specificity in assay [1] (library HD2, bait EIF4E_eIF4E__P06730_1_217, best matching peptide) amounted to 1. The compound also had a best_confidence in assay [1] (library HD2, bait EIF4E_eIF4E__P06730_1_217, confidence level of best matching peptide (4 High, 2-3 Medium, 1 Low)) of 2. For the same compound, the motif_found entry in assay [1] (library HD2, bait EIF4E_eIF4E__P06730_1_217, whether the validated benchmark motif instance was recovered in the ProP-PD selection (TRUE/FALSE)) was “TRUE”.

Take “YRLARQRIIQFQARCRAYLVRKAFRHRLWAV [MYO7A 817-833]”: the motif_found entry in assay [1] (HD2 library, bait CALM1_EF-hand__P0DP23_2_149, benchmark motif instance, in_library_check FALSE, in_library_coverage 0) is on record as “FALSE”.

With YSFFSPSPARKRHAPSPEPAV, the motif_found result in assay [1] (bait KPNA4_Arm (O00629 68-487), HD2 library, benchmark motif instance recovered in the ProP-PD selection (TRUE/FALSE)) was “FALSE”.

In assay [1] (bait ANKRA2_Ank__Q9H9E1_142_313, library HD2, best matching peptide), YTSPSLPNISLGLQAT returned a best_specificity of 1. Besides, the best_confidence in assay [1] (bait ANKRA2_Ank__Q9H9E1_142_313, library HD2, confidence level of best matching peptide (4 = High, 2 or 3 = Medium, 1 = Low)) was 4.

The record behind these values is PMC8769072, “Proteome‐scale mapping of binding sites in the unstructured regions of the human proteome” (Molecular Systems Biology, 2022).
